Experimental data reported in ChEMBL document CHEMBL1142982, “Discovery of N-(4-(3-amino-1H-indazol-4-yl)phenyl)-N'-(2-fluoro-5-methylphenyl)urea (ABT-869), a 3-aminoindazole-based orally active multitargeted receptor tyrosine kinase inhibitor” (J Med Chem, 2007).
Values after ≈ are worked out from the molar mass of the structure shown.

Columns and labels:
[1] = AUC in CD1 mouse at 10 mg/kg, po; format: ADME, organism-based; set-up: dose 10 mg/kg, route oral; details: plasma
[2] = Oral bioavailability in CD1 mouse; format: ADME, organism-based; details: in vivo
[3] = Oral bioavailability in Beagle dog at […], po; format: ADME, organism-based, Canis lupus familiaris; details: in vivo
[4] = Stability in dog hepatocyte assessed as metabolic turnover after 6 hrs; format: ADME, cell-based, Canis lupus familiaris; details: hepatocytes
[5] = Stability in monkey hepatocyte assessed as metabolic turnover after 6 hrs; format: ADME, cell-based, Macaca mulatta; details: rhesus monkey, hepatocytes
[6] = Volume of distribution in Beagle dog at […]; format: ADME, organism-based, Canis lupus familiaris; set-up: dose 2.5 mg/kg; details: in vivo, read-out: Vdss
[7] = Clearance in cynomolgus monkey at […], iv; format: ADME, organism-based, Macaca fascicularis; set-up: dose 2.5 mg/kg, route intravenous; details: in vivo
[8] = AUC in cynomolgus monkey at […], po; format: ADME, organism-based, Macaca fascicularis; set-up: dose 2.5 mg/kg, route oral; details: plasma
[9] = Clearance in Beagle dog at […], iv; format: ADME, organism-based, Canis lupus familiaris; set-up: dose 2.5 mg/kg, route intravenous; details: in vivo
[10] = Half life in cynomolgus monkey at […], iv; format: ADME, organism-based, Macaca fascicularis; set-up: dose 2.5 mg/kg, route intravenous; details: in vivo
[11] = Oral bioavailability n Sprague-Dawley rat at 5 mg/kg, po; format: ADME, organism-based; details: in vivo
[12] = Half life in Beagle dog at […], iv; format: ADME, organism-based, Canis lupus familiaris; set-up: dose 2.5 mg/kg, route intravenous; details: in vivo
[13] = Half life in Sprague-Dawley rat at 5 mg/kg, iv; format: ADME, organism-based; set-up: dose 5 mg/kg, route intravenous; details: in vivo
[14] = AUC in Sprague-Dawley rat at 5 mg/kg, po; format: ADME, organism-based; set-up: dose 5 mg/kg, route oral; details: plasma
[15] = Stability in mouse hepatocyte assessed as metabolic turnover after 6 hrs; format: ADME, cell-based; details: hepatocytes
[16] = Stability in human hepatocyte assessed as metabolic turnover after 6 hrs; format: ADME, cell-based; details: hepatocytes, read-out: Stability
[17] = Volume of distribution in cynomolgus monkey at […], iv; format: ADME, organism-based, Macaca fascicularis; set-up: dose 2.5 mg/kg, route intravenous; details: in vivo, read-out: Vdss
[18] = AUC in Beagle dog at […], po; format: ADME, organism-based, Canis lupus familiaris; set-up: dose 2.5 mg/kg, route oral; details: plasma
[19] = Volume of distribution in Sprague-Dawley rat at 5 mg/kg, iv; format: ADME, organism-based; set-up: dose 5 mg/kg, route intravenous; details: in vivo, read-out: Vdss
[20] = Oral bioavailability in cynomolgus monkey at […], po; format: ADME, organism-based, Macaca fascicularis; details: in vivo
[21] = Aqueous solubility at pH 7 at room temperature; format: physicochemical; details: buffer
[22] = Clearance in Sprague-Dawley rat at 5 mg/kg, iv; details: in vivo
[23] = Lipophilicity, log D at pH 7.4; format: physicochemical; details: buffer

## Cc1cc(NC(=O)Nc2ccc(-c3cccc4[nH]nc(N)c34)cc2)ccc1F
[1]
  AUC: 10.9 µM·h
[2]
  bioavailability: 66%

## Cc1ccc(F)c(NC(=O)Nc2ccc(-c3cccc4[nH]nc(N)c34)cc2)c1 [LINIFANIB]
[3]
  bioavailability: 47%
[4]
  parent remaining at 6 h: 91%
[5]
  parent remaining at 6 h: 91%
[6]
  Vd: 1.2 L/kg
[7]
  clearance: 8.2 mL/min/kg
[8]
  AUC: 600 ng·h/mL
[9]
  clearance: 7.2 mL/min/kg
[1]
  AUC: 24.5 µM·h
[10]
  half-life: 3.1 h
[11]
  bioavailability: 27%
[12]
  half-life: 2 h
[13]
  half-life: 3.6 h
[14]
  AUC: 6800 ng·h/mL
[15]
  parent remaining at 6 h: 91%
[16]
  metabolised at 6 h: 91%
[2]
  bioavailability: 100%
[17]
  Vd: 2.2 L/kg
[18]
  AUC: 1500 ng·h/mL
[19]
  Vd: 1.1 L/kg
[20]
  bioavailability: 10.6%
[21]
  Solubility: 0.027 µg/mL (≈ 0.0719 µM)
[22]
  clearance: 3.3 mL/min/kg
[23]
  logD: 4.2

## Cc1cccc(NC(=O)Nc2ccc(-c3cccc4[nH]nc(N)c34)cc2)c1
[1]
  AUC: 6.5 µM·h
[2]
  bioavailability: 38%

## Cc1cccc(NC(=O)Nc2ccc(-c3ccc(OCCN4CCOCC4)c4[nH]nc(N)c34)cc2)c1
[1]
  AUC: 1 µM·h
[2]
  bioavailability: 20%

## Nc1n[nH]c2cccc(-c3ccc(NC(=O)Nc4cccc(Cl)c4)cc3)c12
[1]
  AUC: 15 µM·h
[2]
  bioavailability: 50%

## Cc1cccc(NC(=O)Nc2ccc(-c3cccc4c3c(N)nn4C)cc2)c1
[1]
  AUC: 19.8 µM·h
[2]
  bioavailability: 89%
